Species on record: Rattus norvegicus
Assay: DrugMatrix - Regimen: Daily Repeat
Type: toxicity, organism-based, Sprague-Dawley
Design: regimen Daily Repeat, gender Male, age 6-8 weeks
Details: in vivo, po, route oral GAVAGE, vehicle 100 % WATER; for ABSOLUTE BASOPHIL / ABSOLUTE EOSINOPHIL / ABSOLUTE LYMPHOCYTE / ABSOLUTE MONOCYTE / ABSOLUTE SEGMENTED NEUTROPHIL / BASOPHIL / EOSINOPHIL / ERYTHROCYTE COUNT / HEMATOCRIT / HEMOGLOBIN / LEUKOCYTE COUNT / LYMPHOCYTE / MEAN CORPUSCULAR HEMOGLOBIN / MEAN CORPUSCULAR HEMOGLOBIN CONCENTRATION / MEAN CORPUSCULAR VOLUME / MONOCYTE / NEUTROPHIL / NUCLEATED RED BLOOD CELLS / PLATELET COUNT: tissue Blood; for ALANINE AMINOTRANSFERASE / ALBUMIN / ALKALINE PHOSPHATASE / ASPARTATE AMINOTRANSFERASE / BLOOD UREA NITROGEN / CARBON DIOXIDE / CHLORIDE / CHOLESTEROL / CREATINE PHOSPHOKINASE / CREATININE / GLUCOSE / LACTATE DEHYDROGENASE / LIPASE / PHOSPHORUS / POTASSIUM / SODIUM / TOTAL BILIRUBIN / TOTAL PROTEIN / URIC ACID: tissue Plasma
[1] = 11 mg/kg, 120 h, dose level Low, time 5 day
[2] = 40 mg/kg, 72 h, dose level High, time 3 day
[3] = 40 mg/kg, 120 h, dose level High, time 5 day

CN(C)C(=O)Oc1cccc([N+](C)(C)C)c1.[Br-] [NEOSTIGMINE BROMIDE]
ABSOLUTE BASOPHIL [1]: 0 CELLS/uL | ABSOLUTE EOSINOPHIL [1]: 28.67 CELLS/uL | ABSOLUTE LYMPHOCYTE [1]: 4930.67 CELLS/uL | ABSOLUTE MONOCYTE [1]: 109.33 CELLS/uL | ABSOLUTE SEGMENTED NEUTROPHIL [1]: 798 CELLS/uL | BASOPHIL [1]: 0% | EOSINOPHIL [1]: 0.33% | ERYTHROCYTE COUNT [1]: 5.49 x10E6/uL | HEMATOCRIT [1]: 34.3% | HEMOGLOBIN [1]: 13.23 G/DL | LEUKOCYTE COUNT [1]: 5.87 x10E3/uL | LYMPHOCYTE [1]: 83% | MEAN CORPUSCULAR HEMOGLOBIN [1]: 24.1 pg | MEAN CORPUSCULAR HEMOGLOBIN CONCENTRATION [1]: 38.57 G/DL | MEAN CORPUSCULAR VOLUME [1]: 62.5 fL | MONOCYTE [1]: 1.67% | NEUTROPHIL [1]: 15% | NUCLEATED RED BLOOD CELLS [1]: 0 /100WBC | PLATELET COUNT [1]: 970 x10E3/uL | ALANINE AMINOTRANSFERASE [1]: 54 u/L | ALBUMIN [1]: 4 G/DL | ALKALINE PHOSPHATASE [1]: 382.33 u/L | ASPARTATE AMINOTRANSFERASE [1]: 83 u/L | BLOOD UREA NITROGEN [1]: 14 mg/dL | CARBON DIOXIDE [1]: 32.33 mmol/L | CHLORIDE [1]: 99.33 MEQ/L | CHOLESTEROL [1]: 67.33 mg/dL | CREATINE PHOSPHOKINASE [1]: 225.33 u/L | CREATININE [1]: 0.14 mg/dL | GLUCOSE [1]: 155.33 mg/dL | LACTATE DEHYDROGENASE [1]: 116 u/L | LIPASE [1]: 9.33 u/L | PHOSPHORUS [1]: 11.53 mg/dL | POTASSIUM [1]: 5.88 MEQ/L | SODIUM [1]: 144.8 MEQ/L | TOTAL BILIRUBIN [1]: 0.17 mg/dL | TOTAL PROTEIN [1]: 5.8 G/DL | URIC ACID [1]: 0.8 mg/dL | ABSOLUTE BASOPHIL [2]: 0 CELLS/uL | ABSOLUTE EOSINOPHIL [2]: 29.33 CELLS/uL | ABSOLUTE LYMPHOCYTE [2]: 8073 CELLS/uL | ABSOLUTE MONOCYTE [2]: 28.67 CELLS/uL | ABSOLUTE SEGMENTED NEUTROPHIL [2]: 702.33 CELLS/uL | BASOPHIL [2]: 0% | EOSINOPHIL [2]: 0.33% | ERYTHROCYTE COUNT [2]: 5.28 x10E6/uL | HEMATOCRIT [2]: 32.2% | HEMOGLOBIN [2]: 12.53 G/DL | LEUKOCYTE COUNT [2]: 8.83 x10E3/uL | LYMPHOCYTE [2]: 91.33% | MEAN CORPUSCULAR HEMOGLOBIN [2]: 23.7 pg | MEAN CORPUSCULAR HEMOGLOBIN CONCENTRATION [2]: 38.93 G/DL | MEAN CORPUSCULAR VOLUME [2]: 60.93 fL | MONOCYTE [2]: 0.33% | NEUTROPHIL [2]: 8% | NUCLEATED RED BLOOD CELLS [2]: 0 /100WBC | PLATELET COUNT [2]: 857.33 x10E3/uL | ALANINE AMINOTRANSFERASE [2]: 53.67 u/L | ALBUMIN [2]: 3.97 G/DL | ALKALINE PHOSPHATASE [2]: 316.33 u/L | ASPARTATE AMINOTRANSFERASE [2]: 90.33 u/L | BLOOD UREA NITROGEN [2]: 13.33 mg/dL | CARBON DIOXIDE [2]: 31.67 mmol/L | CHLORIDE [2]: 100.67 MEQ/L | CHOLESTEROL [2]: 85 mg/dL | CREATINE PHOSPHOKINASE [2]: 289 u/L | CREATININE [2]: 0.15 mg/dL | GLUCOSE [2]: 135.33 mg/dL | LACTATE DEHYDROGENASE [2]: 137.33 u/L | LIPASE [2]: 9 u/L | PHOSPHORUS [2]: 11.43 mg/dL | POTASSIUM [2]: 6.3 MEQ/L | SODIUM [2]: 143.1 MEQ/L | TOTAL BILIRUBIN [2]: 0.2 mg/dL | TOTAL PROTEIN [2]: 6.03 G/DL | URIC ACID [2]: 0.83 mg/dL | ABSOLUTE BASOPHIL [3]: 0 CELLS/uL | ABSOLUTE EOSINOPHIL [3]: 26.33 CELLS/uL | ABSOLUTE LYMPHOCYTE [3]: 8117.33 CELLS/uL | ABSOLUTE MONOCYTE [3]: 169.67 CELLS/uL | ABSOLUTE SEGMENTED NEUTROPHIL [3]: 1053.33 CELLS/uL | BASOPHIL [3]: 0% | EOSINOPHIL [3]: 0.33% | ERYTHROCYTE COUNT [3]: 5.39 x10E6/uL | HEMATOCRIT [3]: 33.9% | HEMOGLOBIN [3]: 13 G/DL | LEUKOCYTE COUNT [3]: 9.37 x10E3/uL | LYMPHOCYTE [3]: 87% | MEAN CORPUSCULAR HEMOGLOBIN [3]: 24.13 pg | MEAN CORPUSCULAR HEMOGLOBIN CONCENTRATION [3]: 38.37 G/DL | MEAN CORPUSCULAR VOLUME [3]: 62.93 fL | MONOCYTE [3]: 1.67% | NEUTROPHIL [3]: 11% | NUCLEATED RED BLOOD CELLS [3]: 0.33 /100WBC | PLATELET COUNT [3]: 1139.67 x10E3/uL | ALANINE AMINOTRANSFERASE [3]: 52.33 u/L | ALBUMIN [3]: 3.97 G/DL | ALKALINE PHOSPHATASE [3]: 386 u/L | ASPARTATE AMINOTRANSFERASE [3]: 89.67 u/L | BLOOD UREA NITROGEN [3]: 15.33 mg/dL | CARBON DIOXIDE [3]: 32.33 mmol/L | CHLORIDE [3]: 102.33 MEQ/L | CHOLESTEROL [3]: 79.33 mg/dL | CREATINE PHOSPHOKINASE [3]: 258 u/L | CREATININE [3]: 0.16 mg/dL | GLUCOSE [3]: 148.67 mg/dL | LACTATE DEHYDROGENASE [3]: 117.33 u/L | LIPASE [3]: 9.33 u/L | PHOSPHORUS [3]: 11.17 mg/dL | POTASSIUM [3]: 6.13 MEQ/L | SODIUM [3]: 148.3 MEQ/L | TOTAL BILIRUBIN [3]: 0.2 mg/dL | TOTAL PROTEIN [3]: 5.87 G/DL | URIC ACID [3]: 0.43 mg/dL

Source: ChEMBL document CHEMBL3885881, “DrugMatrix”
